Source: patent US10544143B2, “4-azaindole compounds” (BRISTOL-MYERS SQUIBB COMPANY, priority 2017, dated 2020)
Like-named read-outs stand apart in the source and are kept apart here.

Tests used:
human TLR7 = human TLR7 (Homo sapiens (Human), UniProt Q9NYK1); test: TLR7 inhibition reporter assay (HEK-Blue SEAP); type: cell-based; conditions: gardiquimod 7.5 μM
human TLR8 = human TLR8 (Homo sapiens (Human), UniProt Q9NR97); test: TLR8 inhibition reporter assay (HEK-Blue SEAP); conditions: R848 15.9 μM;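 note: SEAP driven by IFN-β minimal promoter carrying NF-κB and AP-1 sites, compounds dosed 0.05 nM to 50 µM for 22 h, inhibition scaled between agonist-plus-DMSO and reference-inhibitor wells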
Chain of human TLR8 (Q9NR97 27-1041): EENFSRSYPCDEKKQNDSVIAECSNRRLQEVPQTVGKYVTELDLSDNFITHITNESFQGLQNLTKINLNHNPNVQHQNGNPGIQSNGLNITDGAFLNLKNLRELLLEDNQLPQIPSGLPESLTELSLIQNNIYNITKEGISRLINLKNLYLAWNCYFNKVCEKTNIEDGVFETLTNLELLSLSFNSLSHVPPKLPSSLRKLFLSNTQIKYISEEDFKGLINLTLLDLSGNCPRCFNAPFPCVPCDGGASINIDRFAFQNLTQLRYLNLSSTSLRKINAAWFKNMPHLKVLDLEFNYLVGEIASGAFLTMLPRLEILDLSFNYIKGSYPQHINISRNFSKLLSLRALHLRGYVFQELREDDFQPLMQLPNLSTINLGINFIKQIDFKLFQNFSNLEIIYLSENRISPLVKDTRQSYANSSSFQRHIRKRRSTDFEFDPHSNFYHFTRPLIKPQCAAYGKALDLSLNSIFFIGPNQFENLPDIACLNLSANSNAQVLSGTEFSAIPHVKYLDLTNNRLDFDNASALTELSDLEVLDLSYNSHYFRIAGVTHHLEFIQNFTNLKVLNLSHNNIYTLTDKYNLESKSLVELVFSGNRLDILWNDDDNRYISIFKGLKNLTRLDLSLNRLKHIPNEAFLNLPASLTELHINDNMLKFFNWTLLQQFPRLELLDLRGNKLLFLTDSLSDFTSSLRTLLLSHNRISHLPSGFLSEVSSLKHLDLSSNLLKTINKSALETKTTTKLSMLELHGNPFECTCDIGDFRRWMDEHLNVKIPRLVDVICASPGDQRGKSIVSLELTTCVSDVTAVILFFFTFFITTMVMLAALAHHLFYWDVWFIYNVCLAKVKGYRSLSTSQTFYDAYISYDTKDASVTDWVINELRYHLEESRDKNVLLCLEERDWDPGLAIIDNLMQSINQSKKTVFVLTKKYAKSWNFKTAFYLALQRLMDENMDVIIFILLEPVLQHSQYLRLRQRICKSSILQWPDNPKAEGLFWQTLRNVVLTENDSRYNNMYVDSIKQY

human TLR9 = human TLR9 (Homo sapiens (Human), UniProt Q9NR96); test: TLR9 inhibition reporter assay (HEK-Blue SEAP); conditions: ODN2006 5 nM;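 note: SEAP driven by an IFN-β minimal promoter with NF-κB and AP-1 sites, read after 22 h, compounds dosed 0.05 nM–50 µM, inhibition scaled between agonist plus DMSO and reference-inhibitor wells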
Chain of human TLR9 (Q9NR96 26-1032): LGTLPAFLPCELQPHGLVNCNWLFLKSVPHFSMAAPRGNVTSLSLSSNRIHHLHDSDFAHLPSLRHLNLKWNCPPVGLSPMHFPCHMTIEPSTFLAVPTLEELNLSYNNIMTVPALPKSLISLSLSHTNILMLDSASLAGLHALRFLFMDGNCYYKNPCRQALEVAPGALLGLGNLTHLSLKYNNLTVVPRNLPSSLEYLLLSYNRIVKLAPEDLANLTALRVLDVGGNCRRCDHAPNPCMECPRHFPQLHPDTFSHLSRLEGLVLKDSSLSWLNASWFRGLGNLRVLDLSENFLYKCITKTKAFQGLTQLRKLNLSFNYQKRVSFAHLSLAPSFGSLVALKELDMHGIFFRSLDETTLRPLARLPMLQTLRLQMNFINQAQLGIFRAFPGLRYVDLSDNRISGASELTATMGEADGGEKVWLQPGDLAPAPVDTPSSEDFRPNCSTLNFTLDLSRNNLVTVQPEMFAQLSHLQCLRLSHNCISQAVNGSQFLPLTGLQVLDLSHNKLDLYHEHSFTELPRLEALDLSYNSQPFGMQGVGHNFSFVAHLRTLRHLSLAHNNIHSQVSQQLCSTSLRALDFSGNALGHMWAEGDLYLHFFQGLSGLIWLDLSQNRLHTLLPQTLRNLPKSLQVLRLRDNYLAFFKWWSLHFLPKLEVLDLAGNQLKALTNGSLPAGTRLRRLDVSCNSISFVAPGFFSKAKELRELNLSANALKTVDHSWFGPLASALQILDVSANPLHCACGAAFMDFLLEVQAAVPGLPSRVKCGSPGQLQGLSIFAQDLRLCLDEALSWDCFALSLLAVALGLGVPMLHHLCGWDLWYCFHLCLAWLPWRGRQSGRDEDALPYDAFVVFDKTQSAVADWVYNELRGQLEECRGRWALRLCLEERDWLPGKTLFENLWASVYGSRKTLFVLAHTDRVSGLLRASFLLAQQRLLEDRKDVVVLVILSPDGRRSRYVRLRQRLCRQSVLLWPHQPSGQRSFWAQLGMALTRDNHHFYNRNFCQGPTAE

[1] = HEK-Blue cells overexpressing human TLR7, SEAP reporter
[2] = read-out: TLR8 IC50, HEK-Blue cells overexpressing human TLR8, SEAP reporter
[3] = read-out: TLR9 IC50, HEK-Blue cells overexpressing human TLR9, SEAP reporter
[4] = read-out: TLR8 IC50, HEK-Blue human TLR8 cells
[5] = read-out: TLR9 IC50, HEK-Blue human TLR9 cells

Chain of human TLR7 (Q9NYK1 27-1049): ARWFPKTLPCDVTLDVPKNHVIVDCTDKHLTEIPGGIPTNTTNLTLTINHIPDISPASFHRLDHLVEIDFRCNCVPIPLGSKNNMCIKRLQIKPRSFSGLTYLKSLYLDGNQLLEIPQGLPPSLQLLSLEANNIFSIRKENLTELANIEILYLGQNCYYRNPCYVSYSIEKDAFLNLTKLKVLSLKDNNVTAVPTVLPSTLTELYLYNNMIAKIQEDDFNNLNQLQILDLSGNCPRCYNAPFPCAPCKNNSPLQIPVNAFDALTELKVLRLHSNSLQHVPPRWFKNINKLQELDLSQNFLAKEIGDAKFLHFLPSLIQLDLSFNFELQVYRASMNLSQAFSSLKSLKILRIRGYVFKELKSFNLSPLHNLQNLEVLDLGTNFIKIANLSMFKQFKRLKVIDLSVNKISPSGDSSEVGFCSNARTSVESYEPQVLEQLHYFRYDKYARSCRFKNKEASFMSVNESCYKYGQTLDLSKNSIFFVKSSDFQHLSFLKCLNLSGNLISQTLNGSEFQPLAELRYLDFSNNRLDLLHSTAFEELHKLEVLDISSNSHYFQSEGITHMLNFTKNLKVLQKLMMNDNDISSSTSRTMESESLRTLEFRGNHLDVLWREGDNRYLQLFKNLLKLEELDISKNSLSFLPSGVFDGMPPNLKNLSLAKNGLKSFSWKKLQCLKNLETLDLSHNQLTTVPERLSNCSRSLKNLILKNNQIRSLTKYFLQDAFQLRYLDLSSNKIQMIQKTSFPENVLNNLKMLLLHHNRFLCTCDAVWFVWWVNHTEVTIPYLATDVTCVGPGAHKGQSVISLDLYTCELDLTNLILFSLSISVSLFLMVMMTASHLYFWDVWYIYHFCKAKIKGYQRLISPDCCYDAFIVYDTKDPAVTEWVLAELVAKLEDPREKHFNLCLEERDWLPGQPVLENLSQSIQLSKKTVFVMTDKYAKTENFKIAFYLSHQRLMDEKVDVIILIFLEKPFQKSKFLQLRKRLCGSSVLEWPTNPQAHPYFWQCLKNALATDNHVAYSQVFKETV

Row | IC50 (human TLR7; [1]) | IC50 (human TLR8; [2]) | IC50 (human TLR9; [3]) | IC50 (human TLR7; HEK-Blue human TLR7 cells) | IC50 (human TLR8; [4]) | IC50 (human TLR9; [5]) | IC50 (human TLR8; TLR8 IC50, HEK-Blue human TLR8 cells) | IC50 (human TLR9; TLR9 IC50, HEK-Blue human TLR9 cells) | Structure (SMILES)
1 | 4 nM | 1 nM | 8560 nM |  |  |  |  |  | Cc1c(-c2[nH]c3ccc(N4CCN(C(C)C)[C@@H](C)C4)nc3c2C(C)C)cn2ncnc2c1C [Example 792]
2 | 1.4 nM | 1.4 nM | 7830 nM |  |  |  |  |  | Cc1c(-c2[nH]c3ccc(N4C[C@H](C)N(C(C)C)C[C@@H]4C)nc3c2C(C)C)cn2ncnc2c1C [Example 793]
3 |  |  |  | 1.4 nM | 1.5 nM | 18000 nM |  |  | Cc1c(-c2[nH]c3ccc(N4C[C@H](C)N(CCC(N)=O)C[C@@H]4C)nc3c2C(C)C)cn2ncnc2c1C [Example 794]
4 |  |  |  | 12 nM | 8.1 nM | > 50000 nM |  |  | Cc1c(-c2[nH]c3ccc(N4C[C@H](C)N(CCCS(C)(=O)=O)C[C@@H]4C)nc3c2C(C)C)cn2ncnc2c1C [Example 795]
5 |  |  |  | 6 nM | 15 nM | 11300 nM |  |  | Cc1c(-c2[nH]c3ccc(N4C[C@@H](C)N(C(=O)CN(C)C)C[C@H]4C)nc3c2C(C)C)cn2ncnc2c1C [Example 796]
6 |  |  |  | 10 nM | 14 nM | 17600 nM |  |  | Cc1c(-c2[nH]c3ccc(N4C[C@@H](C)N(C(=O)CCN(C)C)C[C@H]4C)nc3c2C(C)C)cn2ncnc2c1C [Example 797]
7 |  |  |  | 4.2 nM | 5.7 nM | 22300 nM |  |  | Cc1c(-c2[nH]c3ccc(N4C[C@@H](C)N(CCC(N)=O)C[C@H]4C)nc3c2C(C)C)cn2ncnc2c1C [Example 798]
8 |  |  |  | 5 nM | 21 nM | > 50000 nM |  |  | Cc1c(-c2[nH]c3ccc(N4C[C@@H](C)N(CC(N)=O)C[C@H]4C)nc3c2C(C)C)cn2ncnc2c1C [Example 799]
9 |  |  |  | 20 nM | 26 nM | > 50000 nM |  |  | Cc1c(-c2[nH]c3ccc(N4C[C@@H](C)N(CC(N)=O)C[C@H]4C)nc3c2C(C)C)cn2ncnc2c1C [Example 800]
10 |  |  |  | 0.57 nM | 0.56 nM | 11000 nM |  |  | Cc1c(-c2[nH]c3ccc(N4CCN(C(=O)CN(C)C)C[C@@H]4C)nc3c2C(C)C)cn2ncnc2c1C [Example 801]
11 |  |  |  | 3 nM | 0.65 nM | 17900 nM |  |  | Cc1c(-c2[nH]c3ccc(N4CCN(CC(C)(C)O)C[C@@H]4C)nc3c2C(C)C)cn2ncnc2c1C [Example 802]
12 |  |  |  | 4.3 nM | 4 nM | 39700 nM |  |  | Cc1c(-c2[nH]c3ccc(N4CCN(CC(=O)N(C)C)C[C@@H]4C)nc3c2C(C)C)cn2ncnc2c1C [Example 803]
13 |  |  |  | 1.2 nM | 0.56 nM | 18100 nM |  |  | Cc1c(-c2[nH]c3ccc(N4CCN(CCC(N)=O)C[C@@H]4C)nc3c2C(C)C)cn2ncnc2c1C [Example 804]
14 |  |  |  | 2.1 nM | 0.57 nM | 24200 nM |  |  | Cc1c(-c2[nH]c3ccc(N4CCN(CCCS(C)(=O)=O)C[C@@H]4C)nc3c2C(C)C)cn2ncnc2c1C [Example 805]
15 |  |  |  | 1.1 nM | 1.1 nM | 29400 nM |  |  | Cc1c(-c2[nH]c3ccc(N4CCN(CCCS(C)(=O)=O)C[C@H]4C)nc3c2C(C)C)cn2ncnc2c1C [Example 806]
16 |  |  |  | 0.95 nM | 1.3 nM | 16300 nM |  |  | Cc1c(-c2[nH]c3ccc(N4CCN(CCC(N)=O)C[C@H]4C)nc3c2C(C)C)cn2ncnc2c1C [Example 807]
17 |  |  |  | 0.19 nM | 1.4 nM | 8950 nM |  |  | Cc1c(-c2[nH]c3ccc(N4CCN(C(=O)CN(C)C)C[C@H]4C)nc3c2C(C)C)cn2ncnc2c1C [Example 808]
18 |  |  |  | 2.2 nM | 3.1 nM | 36000 nM |  |  | Cc1c(-c2[nH]c3ccc(N4CCN(CC(N)=O)C[C@@H]4C)nc3c2C(C)C)cn2ncnc2c1C [Example 809]
19 |  |  |  | 0.64 nM | 0.63 nM | 7360 nM |  |  | Cc1c(-c2[nH]c3ccc(N4CCN(CC#N)C[C@@H]4C)nc3c2C(C)C)cn2ncnc2c1C [Example 810]
20 |  |  |  | 0.36 nM | 0.59 nM | 5600 nM |  |  | Cc1c(-c2[nH]c3ccc(N4CCN(C(=O)CCN(C)C)C[C@@H]4C)nc3c2C(C)C)cn2ncnc2c1C [Example 811]
21 |  |  |  | 2.2 nM | 3.6 nM | > 50000 nM |  |  | CNC(=O)CN1CCN(c2ccc3[nH]c(-c4cn5ncnc5c(C)c4C)c(C(C)C)c3n2)[C@@H](C)C1 [Example 812]
22 |  |  |  | 3.7 nM | 9.1 nM | > 50000 nM |  |  | Cc1c(-c2[nH]c3ccc(N4CCN(C5COC5)C[C@@H]4C)nc3c2C(C)C)cn2ncnc2c1C [Example 813]
23 |  |  |  | 1.9 nM | 2.3 nM | > 50000 nM |  |  | Cc1c(-c2[nH]c3ccc(N4CCN(C5CCOC5)C[C@@H]4C)nc3c2C(C)C)cn2ncnc2c1C (stereo partly drawn) [Example 814]
24 |  |  |  | 1.8 nM | 1.4 nM | > 50000 nM |  |  | Cc1c(-c2[nH]c3ccc(N4CCN(C5CCS(=O)(=O)CC5)C[C@@H]4C)nc3c2C(C)C)cn2ncnc2c1C [Example 815]

Row | IC50 (human TLR7; [1]) | IC50 (human TLR8; [2]) | IC50 (human TLR9; [3]) | IC50 (human TLR7; HEK-Blue human TLR7 cells) | IC50 (human TLR8; [4]) | IC50 (human TLR9; [5]) | IC50 (human TLR8; TLR8 IC50, HEK-Blue human TLR8 cells) | IC50 (human TLR9; TLR9 IC50, HEK-Blue human TLR9 cells) | Structure (SMILES)
25 |  |  |  | 1.7 nM | 1.7 nM | 8720 nM |  |  | Cc1c(-c2[nH]c3ccc(N4CCN(C(C)C)C[C@@H]4C)nc3c2C(C)C)cn2ncnc2c1C [Example 816]
26 |  |  |  | 2.1 nM | 2.9 nM | > 50000 nM |  |  | Cc1c(-c2[nH]c3ccc(N4CCN(CCS(C)(=O)=O)C[C@@H]4C)nc3c2C(C)C)cn2ncnc2c1C [Example 817]
27 |  |  |  | 0.78 nM | 0.43 nM | 12800 nM |  |  | CNC(=O)CCN1CCN(c2ccc3[nH]c(-c4cn5ncnc5c(C)c4C)c(C(C)C)c3n2)[C@@H](C)C1 [Example 818]
28 |  |  |  | 2.7 nM | 2 nM | 9400 nM |  |  | Cc1c(-c2[nH]c3ccc(N4CCN(C5CCOCC5)C[C@@H]4C)nc3c2C(C)C)cn2ncnc2c1C [Example 820]
29 |  |  |  | 1.3 nM | 1.3 nM | 6690 nM |  |  | Cc1c(-c2[nH]c3ccc(N4[C@@H](C)CNC[C@@H]4C)nc3c2C(C)C)cn2ncnc2c1C [Example 821]
30 |  |  |  | 1.1 nM | 0.24 nM | 6910 nM |  |  | Cc1c(-c2[nH]c3ccc(N4CCN[C@H](C)C4)nc3c2C(C)C)cn2ncnc2c1C [Example 822]
31 |  |  |  | 0.49 nM | 1.2 nM | 6930 nM |  |  | Cc1c(-c2[nH]c3ccc(N4CCN(C(=O)CCN(C)C)C[C@H]4C)nc3c2C(C)C)cn2ncnc2c1C [Example 823]
32 |  |  |  | 1.6 nM | 2.1 nM | 5790 nM |  |  | Cc1c(-c2[nH]c3ccc(N4CCN(C(=O)CN5CCC5)C[C@@H]4C)nc3c2C(C)C)cn2ncnc2c1C [Example 824]
33 |  |  |  | 0.53 nM | 1.1 nM | 6280 nM |  |  | Cc1c(-c2[nH]c3ccc(N4CCN(C(=O)CN5CCCC5)C[C@@H]4C)nc3c2C(C)C)cn2ncnc2c1C [Example 825]
34 |  |  |  | 0.7 nM | 1 nM | 15700 nM |  |  | Cc1c(-c2[nH]c3ccc(N4CCN(C(=O)CNC5CC5)C[C@@H]4C)nc3c2C(C)C)cn2ncnc2c1C [Example 826]
35 |  |  |  | 0.46 nM | 0.34 nM | 4850 nM |  |  | Cc1c(-c2[nH]c3ccc(N4CCN(C(=O)CNC(C)C)C[C@@H]4C)nc3c2C(C)C)cn2ncnc2c1C [Example 827]
36 |  |  |  | 0.88 nM | 1.4 nM | 7160 nM |  |  | Cc1c(-c2[nH]c3ccc(N4CCN(C(=O)C5CN(C)C5)CC4)nc3c2C(C)C)cn2ncnc2c1C [Example 828]
37 |  |  |  | 3.7 nM | 12 nM | 17300 nM |  |  | Cc1c(-c2[nH]c3ccc(N4CCN(C(=O)C5CN(C)C5)C[C@@H]4C)nc3c2C(C)C)cn2ncnc2c1C [Example 829]
38 |  |  |  | 0.62 nM | 0.63 nM | 7440 nM |  |  | CNCC(=O)N1CCN(c2ccc3[nH]c(-c4cn5ncnc5c(C)c4C)c(C(C)C)c3n2)CC1 [Example 830]
39 |  |  |  | 4 nM | 2.3 nM | 16800 nM |  |  | Cc1c(-c2[nH]c3ccc(N4CCN(C(=O)CN)CC4)nc3c2C(C)C)cn2ncnc2c1C [Example 832]
40 |  |  |  | 1.9 nM | 4.9 nM | 9780 nM |  |  | Cc1c(-c2[nH]c3ccc(N4CCN(C(C)C)C[C@H]4C)nc3c2C(C)C)cn2ncnc2c1C [Example 833]
41 |  |  |  | 0.46 nM | 2.5 nM | 4370 nM |  |  | Cc1c(-c2[nH]c3ccc(N4CCN(C(=O)CN5CCC5)C[C@H]4C)nc3c2C(C)C)cn2ncnc2c1C [Example 834]
42 |  |  |  | 0.7 nM | 4.1 nM | 5560 nM |  |  | Cc1c(-c2[nH]c3ccc(N4CCN(C(=O)CN5CCCC5)C[C@H]4C)nc3c2C(C)C)cn2ncnc2c1C [Example 835]
43 |  |  |  | 2.4 nM | 4.1 nM | 16400 nM |  |  | Cc1c(-c2[nH]c3ccc(N4CCN(C(=O)CNC5CC5)C[C@H]4C)nc3c2C(C)C)cn2ncnc2c1C [Example 836]
44 |  |  |  | 0.7 nM | 1.6 nM | 7820 nM |  |  | Cc1c(-c2[nH]c3ccc(N4CCN(C(=O)CNC(C)C)C[C@H]4C)nc3c2C(C)C)cn2ncnc2c1C [Example 837]
45 |  |  |  | 0.6 nM |  |  | 3.5 nM | 9890 nM | [2H]C([2H])([2H])N(CC(=O)N1CCN(c2ccc3[nH]c(-c4cn5ncnc5c(C)c4C)c(C(C)C)c3n2)[C@H](C)C1)C([2H])([2H])[2H] [Example 838]
46 |  |  |  | 0.37 nM | 3.2 nM | 7870 nM |  |  | Cc1c(-c2[nH]c3ccc(N4C[C@H](C)N(C(=O)CN(C)C)C[C@H]4C)nc3c2C(C)C)cn2ncnc2c1C [Example 839]
47 |  |  |  | 0.38 nM | 1.5 nM | 7400 nM |  |  | Cc1c(-c2[nH]c3ccc(N4C[C@H](C)N(C(=O)CCN(C)C)C[C@H]4C)nc3c2C(C)C)cn2ncnc2c1C [Example 840]
48 |  |  |  | 5.6 nM | 28 nM | 14300 nM |  |  | Cc1c(-c2[nH]c3ccc(N4C[C@H](C)N(C(C)C)C[C@H]4C)nc3c2C(C)C)cn2ncnc2c1C [Example 841]
